From patent US12365761B2, “Biodegradable ultra-pH sensitive polymers” (priority 2019, dated 2025)

Tested on: TC-1 tumor model
Assay: PSC7A nanovaccine tumor therapy, TC-1 tumor model
Format: in vivo, C57BL/6 mice
Settings: TC-1 model, s.c. at tail base, three injections, versus PBS control
Text: The nanovaccine was made by physically mixing tumor specific antigenic peptides and PSC7A nanoparticles. Non-degradable PC7A based nanovaccines were used for comparison. […] Tumor growth was subsequently measured using a digital caliper and calculated as 0.5×length×width^2. Mice were sacrificed when the tumor volumes reached 2000 mm^3.
PSC7A nanoparticles were first produced and then mixed with tumor-specific antigenic peptides. Human papilloma virus (HPV) E6/E7-transfected TC-1 and murine B16-F10 melanoma tumor models were used. […] In the TC-1 model, E7 peptide antigen (E7p, […] (SEQ. No. 1)) was used. […] Most of the animals were lost within 30 days after tumor inoculation.

GQAEPDRAHYNIVTFCCKCD [E7p] was tested. Which tumor growth inhibition did it give?
Its tumor growth inhibition is “marginal tumor growth inhibition”.
